Test results from the OligoGym collection.
“And” between values parts separate entries of the source, which are not always exact repeats. Identical values can stand only once. After the bases stand the sugars from the 5' end (letter, count) and the backbone: PS all phosphorothioate, else s phosphorothioate and o phosphodiester by linkage. Methylation of C is not given here. k = constrained ethyl (cEt); d = 2'-deoxy (DNA)

Target: MALAT1
Settings: ASO, A431, 0.005 µM

## CGAGAAATCGGAGCAG (sugars k3 d10 k3, PS)
  target mRNA inhibition: 22%

## CGCAGACAAAGTTTCT (sugars k3 d10 k3, PS)
  target mRNA inhibition: 57%

## CGCAGGGATTTGAACC (sugars k3 d10 k3, PS)
  target mRNA inhibition: 15%

## CGCCATGGAAAGCGAG (sugars k3 d10 k3, PS)
  target mRNA inhibition: 20%

## CGCCGCCTCTTAAAGC (sugars k3 d10 k3, PS)
  target mRNA inhibition: 13%

## CGCTAAGATGCTAGCT (sugars k3 d10 k3, PS)
  target mRNA inhibition: -6%

## CGCTCCTTCCTGGAAT (sugars k3 d10 k3, PS)
  target mRNA inhibition: -19%

## CGGACTTTCTCCCCCA (sugars k3 d10 k3, PS)
  target mRNA inhibition: -9%

## CGGCCCCCCAGTTGCC (sugars k3 d10 k3, PS)
  target mRNA inhibition: 17%

## CGGTTAAAAATAGGTT (sugars k3 d10 k3, PS)
  target mRNA inhibition: 6%

## CGTCCCCATATAAATC (sugars k3 d10 k3, PS)
  target mRNA inhibition: 1%

## CGTCCTGGAAACCAGG (sugars k3 d10 k3, PS)
  target mRNA inhibition: 21%

## CGTTAAAAACTTAACG (sugars k3 d10 k3, PS)
  target mRNA inhibition: 13%

## CGTTACCTTGAAACCG (sugars k3 d10 k3, PS)
  target mRNA inhibition: 36%

## CTAAAAGCATTGCCCT (sugars k3 d10 k3, PS)
  target mRNA inhibition: 35%

## CTAAGAGACATTCAAG (sugars k3 d10 k3, PS)
  target mRNA inhibition: 27%

## CTACAACACCCGGAAA (sugars k3 d10 k3, PS)
  target mRNA inhibition: 33%

## CTACAAGTTACATGTT (sugars k3 d10 k3, PS)
  target mRNA inhibition: -9%

## CTACAGACAAACACTA (sugars k3 d10 k3, PS)
  target mRNA inhibition: 6%

## CTACTCTTCTAAGTCT (sugars k3 d10 k3, PS)
  target mRNA inhibition: 49%

## CTAGATTCACTGAATC (sugars k3 d10 k3, PS)
  target mRNA inhibition: 7%

## CTATACTTCTCCAATA (sugars k3 d10 k3, PS)
  target mRNA inhibition: -13%

## CTATTCTTTTCTTCGC (sugars k3 d10 k3, PS)
  target mRNA inhibition: 37%

## CTCACGGATTTTTACC (sugars k3 d10 k3, PS)
  target mRNA inhibition: 7%

## CTCAGGGTTATGCTTA (sugars k3 d10 k3, PS)
  target mRNA inhibition: 40%

## CTCAGTCCTAGCTTCA (sugars k3 d10 k3, PS)
  target mRNA inhibition: 42%

## CTCCAGCATAAAGCTG (sugars k3 d10 k3, PS)
  target mRNA inhibition: 12%

## CTCCCCCCCGCCTCAG (sugars k3 d10 k3, PS)
  target mRNA inhibition: 12%

## CTCGATGGAAAAATTT (sugars k3 d10 k3, PS)
  target mRNA inhibition: 8%

## CTCGGGCTGCAGGCTG (sugars k3 d10 k3, PS)
  target mRNA inhibition: 19%

## CTCTAATCACTGTCAA (sugars k3 d10 k3, PS)
  target mRNA inhibition: 11%

## CTCTGATCTGCGGCCC (sugars k3 d10 k3, PS)
  target mRNA inhibition: -6%

## CTGAAAGAACTAGTGG (sugars k3 d10 k3, PS)
  target mRNA inhibition: 20%

## CTGAAATCCCCTAGGG (sugars k3 d10 k3, PS)
  target mRNA inhibition: 30%

## CTGAAGAGCATTGGAG (sugars k3 d10 k3, PS)
  target mRNA inhibition: 50%

## CTGAAGTCAAGACAAC (sugars k3 d10 k3, PS)
  target mRNA inhibition: -17%

## CTGATTCTAACAGCAC (sugars k3 d10 k3, PS)
  target mRNA inhibition: 55% and 49% and 50%

## CTGATTTTAAGGTTGC (sugars k3 d10 k3, PS)
  target mRNA inhibition: 80% and 86%

## CTGCGCTTAAGAGGGC (sugars k3 d10 k3, PS)
  target mRNA inhibition: 34%

## CTGCTCGCCTCCTCCG (sugars k3 d10 k3, PS)
  target mRNA inhibition: 16%

## CTGGAAAAGCTAGGGA (sugars k3 d10 k3, PS)
  target mRNA inhibition: -13%

## CTGTAAACCTGTGGTG (sugars k3 d10 k3, PS)
  target mRNA inhibition: 15%

## CTGTGGTGGTCTGATT (sugars k3 d10 k3, PS)
  target mRNA inhibition: 33%

## CTGTGGTTTTAATACC (sugars k3 d10 k3, PS)
  target mRNA inhibition: 51%

## CTGTGTTATGCCTGGT (sugars k3 d10 k3, PS)
  target mRNA inhibition: -3%

## CTTAAGAGGGCAGGAG (sugars k3 d10 k3, PS)
  target mRNA inhibition: -4%

## CTTATCCCTAACATGC (sugars k3 d10 k3, PS)
  target mRNA inhibition: 41%

## CTTATTTAGAGGGCCT (sugars k3 d10 k3, PS)
  target mRNA inhibition: 36%

## CTTCAACAATCACTAC (sugars k3 d10 k3, PS)
  target mRNA inhibition: 2%

## CTTCAACTGGGAATAC (sugars k3 d10 k3, PS)
  target mRNA inhibition: 7%

## CTTCAAGCACCGCTTG (sugars k3 d10 k3, PS)
  target mRNA inhibition: 21% and 28%

## CTTCACCACGAACTGC (sugars k3 d10 k3, PS)
  target mRNA inhibition: 43%

## CTTCATGACCCTACTG (sugars k3 d10 k3, PS)
  target mRNA inhibition: 36%

## CTTCATTACCCCAACT (sugars k3 d10 k3, PS)
  target mRNA inhibition: 14%

## CTTCGGTGCCTTTAGT (sugars k3 d10 k3, PS)
  target mRNA inhibition: 23%

## CTTCGGTTTAATCTCT (sugars k3 d10 k3, PS)
  target mRNA inhibition: 73% and 54%

## CTTCTATAGTCTGAAG (sugars k3 d10 k3, PS)
  target mRNA inhibition: 18%

## CTTCTATTGGTATTAA (sugars k3 d10 k3, PS)
  target mRNA inhibition: 18%

## CTTCTGAACCGGAGCA (sugars k3 d10 k3, PS)
  target mRNA inhibition: -27%

## CTTGAAGACTGTTGCT (sugars k3 d10 k3, PS)
  target mRNA inhibition: 42%

## CTTGAGATTTGGGCTT (sugars k3 d10 k3, PS)
  target mRNA inhibition: 12% and 2%

## CTTGATCCCAACTCAT (sugars k3 d10 k3, PS)
  target mRNA inhibition: 11%

## CTTTAAGTTCTCTGGC (sugars k3 d10 k3, PS)
  target mRNA inhibition: 64% and 82%

## CTTTCCATTACGCAAC (sugars k3 d10 k3, PS)
  target mRNA inhibition: 0%

## GAAAAAGCTTGTTCAC (sugars k3 d10 k3, PS)
  target mRNA inhibition: 28%

## GAAAACCCACTCTTGG (sugars k3 d10 k3, PS)
  target mRNA inhibition: 10%

## GAAACCAGGAGTGCCA (sugars k3 d10 k3, PS)
  target mRNA inhibition: 4%

## GAAACCTGGGCTCCCG (sugars k3 d10 k3, PS)
  target mRNA inhibition: 13%

## GAAACTCCCCCATTAT (sugars k3 d10 k3, PS)
  target mRNA inhibition: 6%

## GAAATCCCTTCAGGAT (sugars k3 d10 k3, PS)
  target mRNA inhibition: 14%

## GAACAAGTCCTACAAT (sugars k3 d10 k3, PS)
  target mRNA inhibition: 32%

## GAACTCCACAGCTCTT (sugars k3 d10 k3, PS)
  target mRNA inhibition: 33%

## GAATCTTACTTGATAA (sugars k3 d10 k3, PS)
  target mRNA inhibition: 13%

## GAATTAAGACCAAGGG (sugars k3 d10 k3, PS)
  target mRNA inhibition: 36%

## GACAAGCAATTAACTT (sugars k3 d10 k3, PS)
  target mRNA inhibition: 66% and 53%

## GACAGTAGGTATAGTT (sugars k3 d10 k3, PS)
  target mRNA inhibition: -13%

## GACCAAACTGCAGAGT (sugars k3 d10 k3, PS)
  target mRNA inhibition: 3%

## GACCATCCCAAAATGC (sugars k3 d10 k3, PS)
  target mRNA inhibition: 8%

## GACGCAATTCTCCCTG (sugars k3 d10 k3, PS)
  target mRNA inhibition: 27%

## GACTGAATATGAACCA (sugars k3 d10 k3, PS)
  target mRNA inhibition: 51% and 76%

## GACTTGGCAGTCTGCC (sugars k3 d10 k3, PS)
  target mRNA inhibition: 10%
